How the values were obtained:
[1] = molecular target: human HSP90 alpha protein (HSP90 N-terminal protein, amino acids 2-236) (Homo sapiens (Human), UniProt P07900); assay: Measurement of HSP90-binding activity (AlphaScreen competitive assay, biotin-labeled geldanamycin); settings: concentration inhibiting binding of biotin-labeled geldanamycin (40 nM) to purified HSP90 to 50% of control; read-out: HSP-binding activity IC50
SK-BR-3 cells = assay: Measurement of cell growth inhibition (crystal violet staining method); type: cell-based; settings: Homo sapiens
[2] = breast cancer SK-BR-3 cells, 72 hr culture with test substance

| Compound | IC50 [1] [nM] | IC50 (SK-BR-3 cells; [2]) [nM] | IC50 (SK-BR-3 cells; SK-BR-3, 72 h) [nM] |
| --- | --- | --- | --- |
| CC(C)c1nn(-c2ccc(C(N)=O)c(N[C@H]3CC[C@H](O)CC3)c2)c2nccc(-c3cnc4c(ccn4C)c3)c12 [Example 14, 2-(Trans-4-hydroxycyclohexylamino)-4-{3-isopropyl-4-(1-methyl-1H-pyrrolo[2,3-b]pyridin-5-yl)-1H-pyrazolo[3,4-b]pyridin-1-yl}benzamide] | 690 | 180 | – |
| CC(C)c1nn(-c2ccc(C(N)=O)c(NCCN3CCCC3)c2)c2nccc(-c3cnc4ccccc4c3)c12 [Example 22, 4-{3-Isopropyl-4-(quinolin-3-yl)-1H-pyrazolo[3,4-b]pyridin-1-yl}-2-{2-(pyrrolidin-1-yl)ethylamino}benzamide] | 180 | 160 | – |
| CCNc1cc(-n2nc(C(F)(F)F)c3c(-n4cnc(-c5cnn(C)c5)c4)ccnc32)ccc1C(N)=O [Example 161, 2-(Ethylamino)-4-{4-(4-(1-methyl-1H-pyrazol-4-yl)-1H-imidazol-1-yl)-3-(trifluoromethyl)-1H-pyrazolo[3,4-b]pyridin-1-yl}benzamide] | 170 | 60 | – |
| NCC(=O)O[C@H]1CC[C@H](Nc2cc(-n3cc(C(F)(F)F)c4c(-c5cnc6ccccc6c5)ccnc43)ccc2C(N)=O)CC1 [Example 44, Trans-4-{2-carbamoyl-5-{4-(quinolin-3-yl)-3-(trifluoromethyl)-1H-pyrrolo[2,3-b]pyridin-1-yl}phenylamino}cyclohexyl-2-aminoacetate dimethanesulfonate] | 130 | – | 10 |
| CCc1cn(-c2ccc(C(N)=O)c(NC3CCCCC3N)c2)c2nccc(-c3cnc4ccccc4c3)c12 (centres unmarked) [Example 70, 2-(2-Aminocyclohexylamino)-4-{3-ethyl-4-(quinolin-3-yl)-1H-pyrrolo[2,3-b]pyridin-1-yl}benzamide] | 230 | 80 | – |
| CCc1cn(-c2ccc(C(N)=O)c(N[C@H]3CC[C@H](N)CC3)c2)c2nccc(-c3cnc4ccccc4c3)c12 [Example 72, 2-(Trans-4-aminocyclohexylamino)-4-{3-ethyl-4-(quinolin-3-yl)-1H-pyrrolo[2,3-b]pyridin-1-yl}benzamide] | 260 | 110 | – |
| CC(C)c1nn(-c2ccc(C(N)=O)c(Nc3ccc(N4CCOCC4)cc3)c2)c2nccc(-c3cnc4ccccc4c3)c12 [Example 33, 4-{3-Isopropyl-4-(quinolin-3-yl)-1H-pyrazolo[3,4-b]pyridin-1-yl}-2-(4-morpholinophenylamino)benzamide] | 1140 | 70 | – |
| CC(C)c1nn(-c2ccc(C(N)=O)c(NC3CCNCC3)c2)c2nccc(-c3cnc4ccccc4c3)c12 [Example 76, 4-{3-Isopropyl-4-(quinolin-3-yl)-1H-pyrazolo[3,4-b]pyridin-1-yl}-2-(piperidin-4-ylamino)-benzamide] | 190 | 40 | – |
| CC(C)c1nn(-c2ccc(C(N)=O)c(NCCCN(C)C)c2)c2nccc(-c3cnc4ccccc4c3)c12 [Example 29, 2-{3-(Dimethylamino)propylamino}-4-{3-isopropyl-4-(quinolin-3-yl)-1H-pyrazolo[3,4-b]pyridin-1-yl}benzamide] | 320 | 240 | – |
| CC(C)c1nn(-c2ccc(C(N)=O)c(N[C@H]3CC[C@H](O)CC3)c2)c2nccc(-n3ccnc3)c12 [Example 36, 4-{4-(1H-Imidazol-1-yl)-3-isopropyl-1H-pyrazolo[3,4-b]pyridin-1-yl}-2-(trans-4-hydroxycyclohexylamino)benzamide] | 1880 | 3210 | – |
| CCNCCNc1cc(-n2cc(CC)c3c(-c4cnc5ccccc5c4)ccnc32)ccc1C(N)=O [Example 75, 4-{3-Ethyl-4-(quinolin-3-yl)-1H-pyrrolo[2,3-b]pyridin-1-yl}-2-{2-(ethylamino)ethylamino}benzamide] | 310 | 240 | – |
| CC(C)c1nn(-c2ccc(C(N)=O)c(Nc3ccc(C(=O)N4CCCC4)cc3)c2)c2nccc(-c3cnc4ccccc4c3)c12 [Example 34, 4-{3-Isopropyl-4-(quinolin-3-yl)-1H-pyrazolo[3,4-b]pyridin-1-yl}-2-{4-(pyrrolidine-1-carbonyl)phenylamino}benzamide] | 570 | 50 | – |
| Cc1cn(-c2ccc(C(N)=O)c(NCCCCO)c2)c2nccc(-c3cnc4ccccc4c3)c12 [Example 55, 2-(4-Hydroxybutylamino)-4-{3-methyl-4-(quinolin-3-yl)-1H-pyrrolo[2,3-b]pyridin-1-yl}benzamide] | 2810 | 920 | – |

Second part, led by results:

| IC50 [1] [nM] | IC50 (SK-BR-3 cells; [2]) [nM] | Compound | IC50 (SK-BR-3 cells; SK-BR-3, 72 h) [nM] |
| --- | --- | --- | --- |
| 200 | 110 | CCc1c(-n2nc(C(C)C)c3c(-n4cnc(-c5cnn(C)c5)c4)ccnc32)ccc(C(N)=O)c1N [Example 134, 2-Amino-3-ethyl-4-{3-isopropyl-4-(4-(1-methyl-1H-pyrazol-4-yl)-1H-imidazol-1-yl)-1H-pyrazolo[3,4-b]pyridin-1-yl}benzamide] | – |
| 930 | 1330 | CC(C)NC(=O)c1ccc(-c2cn(-c3ccnc4c3c(C(C)C)nn4-c3ccc(C(N)=O)cc3Cl)cn2)cc1 [Example 150, 4-{1-(1-(4-Carbamoyl-2-chlorophenyl)-3-isopropyl-1H-pyrazolo[3,4-b]pyridin-4-yl)-1H-imidazol-4-yl}-N-isopropylbenzamide] | – |
| 190 | 80 | CC(C)Nc1cc(-n2nc(C(C)C)c3c(-n4cnc(-c5cnn(C)c5)c4)ccnc32)ccc1C(N)=O [Example 111, 4-{3-Isopropyl-4-(4-(1-methyl-1H-pyrazol-4-yl)-1H-imidazol-1-yl)-1H-pyrazolo[3,4-b]pyridin-1-yl}-2-(isopropylamino)benzamide] | – |
| 270 | 390 | NC(=O)c1ccc(-n2nc(C(F)(F)F)c3c(-n4cnc(-c5cccnc5)c4)ccnc32)c(N)c1 [Example 177, 3-Amino-4-{4-(4-(pyridin-3-yl)-1H-imidazol-1-yl)-3-(trifluoromethyl)-1H-pyrazolo[3,4-b]pyridin-1-yl}benzamide] | – |
| 210 | 170 | CCc1cc(C(N)=O)ccc1-n1nc(C(C)C)c2c(-n3cnc(-c4cnn(C)c4)c3)ccnc21 [Example 102, 3-Ethyl-4-{3-isopropyl-4-(4-(1-methyl-1H-pyrazol-4-yl)-1H-imidazol-1-yl)-1H-pyrazolo[3,4-b]pyridin-1-yl}benzamide] | – |
| 140 | 250 | CC(C)c1nn(-c2ccc(C(N)=O)cc2C2CC2)c2nccc(-n3cnc(-c4cnn(C)c4)c3)c12 [Example 105, 3-Cyclopropyl-4-{3-isopropyl-4-(4-(1-methyl-1H-pyrazol-4-yl)-1H-imidazol-1-yl)-1H-pyrazolo[3,4-b]pyridin-1-yl}benzamide] | – |
| 810 | 360 | CCNc1cc(-n2nc(C(C)C)c3c(-n4cnc(-c5cnn(C(F)F)c5)c4)ccnc32)ccc1C(N)=O [Example 147, 4-{4-(4-(1-(Difluoromethyl)-1H-pyrazol-4-yl)-1H-imidazol-1-yl)-3-isopropyl-1H-pyrazolo[3,4-b]pyridin-1-yl}-2-(ethylamino)benzamide] | – |
| 200 | 140 | CC(C)Nc1cc(C(N)=O)ccc1-n1nc(C(C)C)c2c(-n3cnc(-c4cnn(C)c4)c3)ccnc21 [Example 120, 4-{3-Isopropyl-4-(4-(1-methyl-1H-pyrazol-4-yl)-1H-imidazol-1-yl)-1H-pyrazolo[3,4-b]pyridin-1-yl}-3-(isopropylamino)benzamide] | – |
| 200 | 900 | CC(C)c1nn(-c2ccc(C(N)=O)cc2N)c2nccc(-n3cnc(-c4cnn(C)c4)c3)c12 [Example 107, 3-Amino-4-{3-isopropyl-4-(4-(1-methyl-1H-pyrazol-4-yl)-1H-imidazol-1-yl)-1H-pyrazolo[3,4-b]pyridin-1-yl}benzamide] | – |
| 420 | 110 | CCNc1cc(-n2nc(C(C)C)c3c(-n4cnc(-c5cn[nH]c5)c4)ccnc32)ccc1C(N)=O [Example 144, 4-{4-(4-(1H-Pyrazol-4-yl)-1H-imidazol-1-yl)-3-isopropyl-1H-pyrazolo[3,4-b]pyridin-1-yl}-2-(ethylamino)benzamide] | – |
| 120 | 220 | COc1cc(C(N)=O)ccc1-n1nc(C(C)C)c2c(-n3cnc(-c4cccnc4)c3)ccnc21 [Example 142, 4-{3-Isopropyl-4-(4-(pyridin-3-yl)-1H-imidazol-1-yl)-1H-pyrazolo[3,4-b]pyridin-1-yl}-3-methoxybenzamide] | – |
| 470 | 200 | CC(C)c1nn(-c2ccc(C(N)=O)c(NC3CCC(O)CC3)c2)c2nccc(-n3cnc(-c4cnn(CCOCc5ccccc5)c4)c3)c12 (centres unmarked) [Example 94, 4-{4-(4-(1-(Benzyloxyethyl)-1H-pyrazol-4-yl)-1H-imidazol-1-yl)-3-isopropyl-1H-pyrazolo[3,4-b]pyridin-1-yl}-2-(4-hydroxycyclohexylamino)benzamide] | – |
| 310 | 490 | CNc1cc(-n2nc(C(C)C)c3c(-n4cnc(-c5cnn(C)c5)c4)ccnc32)ccc1C(N)=O [Example 110, 4-{3-Isopropyl-4-(4-(1-methyl-1H-pyrazol-4-yl)-1H-imidazol-1-yl)-1H-pyrazolo[3,4-b]pyridin-1-yl}-2-(methylamino)benzamide] | – |
| 110 | 90 | CCNc1cc(C(N)=O)ccc1-n1nc(C(F)(F)F)c2c(-n3cnc(-c4cnn(C)c4)c3)ccnc21 [Example 162, 3-(Ethylamino)-4-{4-(4-(1-methyl-1H-pyrazol-4-yl)-1H-imidazol-1-yl)-3-(trifluoromethyl)-1H-pyrazolo[3,4-b]pyridin-1-yl}benzamide] | – |
| 230 | 1130 | CC(C)c1nn(-c2ccc(C(N)=O)cc2CN(C)C)c2nccc(-n3cnc(-c4cnn(C)c4)c3)c12 [Example 126, 3-{(Dimethylamino)methyl}-4-{3-isopropyl-4-(4-(1-methyl-1H-pyrazol-4-yl)-1H-imidazol-1-yl)-1H-pyrazolo[3,4-b]pyridin-1-yl}benzamide] | – |

From US8779142B2, “Azabicyclo compound and salt thereof” (Taiho Pharmaceutical Co., Ltd., priority 2009, dated 2014)
